Data reported in ChEMBL document CHEMBL1201862, “PubChem BioAssay data set” (2004).
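Five compound concentrations were applied to cells in 96-well plates for 48 hours; endpoints were derived by simple linear interpolation of the resulting dose-response curve. Here, GI50 denotes the concentration required for 50% inhibition of growth.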 Calls of active or inactive are those of the source. Rule as the data show it: active = GI50 up to about 1.1 µM and inactive = higher.

Legend:
Assay in all cases: inhibition of tumour cell growth, NCI panel, 48 h
SN12C = tested on: SN12C
OVCAR-5 = tested on: OVCAR-5
HCT-116 = tested on: HCT-116
MCF7 = tested on: MCF7
CCRF-CEM = tested on: CCRF-CEM
UACC-257 = tested on: UACC-257
SF-539 = tested on: SF-539
SF-268 = tested on: SF-268
HCC 2998 = tested on: HCC 2998
EKVX = tested on: EKVX
U-251 = tested on: U-251
DU-145 = tested on: DU-145
T47D = tested on: T47D
MDA-MB-231 = tested on: MDA-MB-231
UACC-62 = tested on: UACC-62
MDA-MB-435 = tested on: MDA-MB-435
NCI-H522 = tested on: NCI-H522
M14 = tested on: M14
MOLT-4 = tested on: MOLT-4
A498 = tested on: A498

Measured: GI50

SC1=NC2=C(CSC/C2=C\c2cccc(Br)c2)C(c2cccc(Br)c2)N1 (stereo not given)
inactive: SN12C > 100 µM | OVCAR-5 > 100 µM | HCT-116 43.7 µM | MCF7 64.1 µM | CCRF-CEM 65.9 µM | UACC-257 > 100 µM | SF-539 > 100 µM | SF-268 > 100 µM | HCC 2998 > 100 µM | EKVX 42.3 µM | U-251 > 100 µM | DU-145 > 100 µM | T47D 25 µM | MDA-MB-231 > 100 µM | UACC-62 > 100 µM | MDA-MB-435 41.3 µM | NCI-H522 > 100 µM | M14 46.2 µM | MOLT-4 38.7 µM | A498 > 100 µM
